In paper PMC10840338, “High efficacy of the F-ATP synthase inhibitor TBAJ-5307 against nontuberculous mycobacteria in vitro and in vivo” (The Journal of Biological Chemistry, 2024):

Target: T1, F1FO-ATP synthase (FO domain, subunit c ring with subunit a) (Mycobacteroides abscessus, UniProt B1MLV6+B1MLV7)
T1 construct: gene atpE; native F1FO-ATP synthase in inverted-membrane vesicles of M. subsp. abscessus R variant; with subunit a (atpB); whole complex α3:β3:γ:ε:b-δ:b’:a:c9
Assay: ATP synthesis inhibition in inverted-membrane vesicles (luminescence)
Type: biochemical

`COc1cc([C@](O)(CCN(C)C)[C@@H](c2cc3cc(Br)ccc3nc2OC)c2ccnc(OC)c2OC)cc(OC)n1` [TBAJ-5307] gave an IC50 of 1.4 nM.
